From ChEMBL document CHEMBL1139688, “3,4,5-Trisubstituted isoxazoles as novel PPARdelta agonists. Part 2” (Bioorg Med Chem Lett, 2006)
Active and inactive are the calls of the source. The rule behind the calls is not given here.

Experiments:
[1] = molecular target: T1, Peroxisome proliferator-activated receptor delta (Homo sapiens, UniProt Q03181); experiment: Activity at human PPAR delta by cell-based transactivation assay
T1 sequence (Q03181 whole entry): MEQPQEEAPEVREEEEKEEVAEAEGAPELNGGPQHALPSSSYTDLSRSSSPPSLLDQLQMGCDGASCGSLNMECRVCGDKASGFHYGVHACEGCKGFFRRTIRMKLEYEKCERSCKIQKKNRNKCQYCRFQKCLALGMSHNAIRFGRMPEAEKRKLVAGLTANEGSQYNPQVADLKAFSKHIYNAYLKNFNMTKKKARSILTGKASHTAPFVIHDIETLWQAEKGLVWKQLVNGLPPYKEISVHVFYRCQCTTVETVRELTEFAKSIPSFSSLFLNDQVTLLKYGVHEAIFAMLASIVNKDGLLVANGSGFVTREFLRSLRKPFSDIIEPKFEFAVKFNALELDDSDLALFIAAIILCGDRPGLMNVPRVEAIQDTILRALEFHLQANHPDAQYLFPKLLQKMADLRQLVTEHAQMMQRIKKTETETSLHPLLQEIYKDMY

[2] = tested on: Liver microsomes; experiment: Stability in human liver microsomes; type: ADME, Microsome
[3] = molecular target: T2, Peroxisome proliferator-activated receptor gamma (Homo sapiens, UniProt P37231); experiment: Activity at human PPAR gamma by cell-based transactivation assay
T2 sequence (P37231 whole entry): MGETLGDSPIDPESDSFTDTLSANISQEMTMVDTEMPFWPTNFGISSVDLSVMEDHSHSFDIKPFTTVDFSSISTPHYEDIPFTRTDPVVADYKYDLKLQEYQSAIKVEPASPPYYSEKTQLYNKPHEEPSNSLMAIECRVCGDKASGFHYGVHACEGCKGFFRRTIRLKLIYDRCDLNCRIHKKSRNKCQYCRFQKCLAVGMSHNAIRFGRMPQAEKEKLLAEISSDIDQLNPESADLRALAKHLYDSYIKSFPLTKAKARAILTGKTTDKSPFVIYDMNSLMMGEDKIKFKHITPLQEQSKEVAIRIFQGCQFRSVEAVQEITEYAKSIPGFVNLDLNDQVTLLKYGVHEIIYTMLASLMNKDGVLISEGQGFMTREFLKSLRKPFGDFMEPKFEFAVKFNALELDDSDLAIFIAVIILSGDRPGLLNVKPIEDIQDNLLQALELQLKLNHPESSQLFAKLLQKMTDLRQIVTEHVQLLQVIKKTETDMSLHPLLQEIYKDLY

[4] = molecular target: T3, Peroxisome proliferator-activated receptor alpha (Homo sapiens, UniProt Q07869); experiment: Activity at human PPAR alpha by cell-based transactivation assay
T3 sequence (Q07869 whole entry): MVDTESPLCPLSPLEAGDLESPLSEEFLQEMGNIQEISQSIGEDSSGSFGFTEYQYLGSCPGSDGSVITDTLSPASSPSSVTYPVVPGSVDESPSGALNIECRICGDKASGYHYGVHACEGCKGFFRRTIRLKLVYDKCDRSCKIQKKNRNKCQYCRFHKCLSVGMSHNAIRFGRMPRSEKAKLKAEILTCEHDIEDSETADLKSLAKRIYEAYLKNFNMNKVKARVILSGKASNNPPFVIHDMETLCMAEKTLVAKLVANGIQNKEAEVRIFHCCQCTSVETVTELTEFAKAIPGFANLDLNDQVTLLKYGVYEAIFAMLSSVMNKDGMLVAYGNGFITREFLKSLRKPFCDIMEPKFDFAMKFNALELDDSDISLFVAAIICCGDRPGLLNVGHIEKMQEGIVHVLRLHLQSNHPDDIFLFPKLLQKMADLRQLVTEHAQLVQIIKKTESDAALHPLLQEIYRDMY

[5] = tested on: Liver microsomes; experiment: Stability in rat liver microsomes; type: ADME, Microsome
[6] = Stability in mouse liver microsomes; type: ADME, Microsome
[7] = Half life in C57BL/6 mouse at 20 mg/kg, po; type: ADME, organism-based; design: dose 20 mg/kg, route oral; settings: in vivo
[8] = Cmax in C57BL/6 mouse at 20 mg/kg, po; type: ADME, organism-based; design: dose 20 mg/kg, route oral; settings: in vivo
[9] = tested on: Mus musculus; experiment: Regulation of PDK4 gene expression in C57BL/6 mouse skeletal muscle at 10 mg/kg, po; type: functional, organism-based; design: dose 10 mg/kg; settings: Muscle tissue
[10] = tested on: Mus musculus; experiment: Regulation of UCP3 gene expression in C57BL/6 mouse skeletal muscle at 10 mg/kg, po; type: functional, organism-based; design: dose 10 mg/kg; settings: Muscle tissue
[11] = tested on: Mus musculus; experiment: Regulation of ApoAIV gene expression in C57BL/6 mouse jejunum at 10 mg/kg, po; type: functional, organism-based; design: dose 10 mg/kg

| SMILES | EC50 [1] [µM] | Stability [2] | EC50 [3] [µM] | EC50 [4] [µM] | Stability [5] | Stability [6] | half-life [7] [h] | Cmax [8] [nM] | Activity [9] | Activity [10] | Activity [11] |
| --- | --- | --- | --- | --- | --- | --- | --- | --- | --- | --- | --- |
| COc1ccc(CC(=O)O)cc1-c1noc(-c2ccccc2)c1C(=O)NCCOc1ccc(Cl)cc1Cl | 0.56 | Stable | > 10 | > 10 | Stable | Stable |  |  |  |  |  |
| CC(C)c1onc(-c2cccc(CC(=O)O)c2)c1C(=O)NCCOc1ccc(Cl)cc1Cl | 1.07 | Stable | > 10 | > 10 | Stable | Stable |  |  |  |  |  |
| Cc1cc(-c2noc(-c3ccccc3)c2C(=O)NCCOc2ccc(Cl)cc2Cl)ccc1OCC(=O)O | 0.2 | Stable | > 10 | > 10 | Stable | Stable | < 0.5 | < 300 |  |  |  |
| O=C(O)Cc1cccc(-c2noc(-c3ccccc3Cl)c2C(=O)NCCOc2ccc(Cl)cc2Cl)c1 | 0.06 | Stable | > 10 | > 10 | Stable | Stable | 1.1 | 5600 |  |  |  |
| Cc1ccccc1-c1onc(-c2cccc(CC(=O)O)c2)c1C(=O)NCCOc1ccc(Cl)cc1Cl | 0.05 | Stable | > 10 | > 10 | Stable | Stable | 1.5 | 1900 |  |  |  |
| O=C(O)CCc1cccc(-c2noc(-c3ccccc3)c2C(=O)NCCOc2ccc(Cl)cc2Cl)c1 | 0.97 | Stable | > 10 | > 10 | Stable | Stable |  |  |  |  |  |
| O=C(O)c1ccc(-c2noc(-c3ccccc3)c2C(=O)NCCOc2ccc(Cl)cc2Cl)cc1 | > 10 | Stable | > 10 | > 10 | Stable | Stable |  |  |  |  |  |
| O=C(O)Cc1ccc(-c2noc(-c3ccccc3)c2C(=O)NCCOc2ccc(Cl)cc2Cl)cc1 | 0.72 | Stable | > 10 | > 10 | Stable | Stable |  |  |  |  |  |
| O=C(O)Cc1cccc(-c2noc(-c3ccccc3)c2C(=O)NCCOc2ccc(Cl)cc2Cl)c1 | 0.07 | Stable | > 10 | > 10 | Stable | Stable | 3.1 | 5100 | Active | Active | Active |
| O=C(O)Cc1ccc(-c2noc(-c3ccccc3)c2C(=O)NCCOc2ccc(Cl)cc2Cl)c(Cl)c1 |  | Stable | > 10 | > 10 | Stable | Stable | < 0.5 | < 300 |  |  |  |
| O=C(O)Cc1cccc(-c2noc(-c3ccco3)c2C(=O)NCCOc2ccc(Cl)cc2Cl)c1 | 0.09 | Stable | > 10 | > 10 | Stable | Stable | < 0.5 | < 300 |  |  |  |
| O=C(O)Cc1ccc(OCc2noc(-c3ccccc3)c2C(=O)NCCOc2ccc(Cl)cc2Cl)c(Cl)c1 | > 10 | Stable | > 10 | > 10 | Stable | Stable |  |  |  |  |  |
